“And” between values parts separate entries of the source, which are not always exact repeats. Identical values can stand only once.
Assays:
[1] = test system: Escherichia coli (E. coli - ATCC #10536); assay: Synergy test: high resolution MBC microtiter plate assay, 15 seconds contact, phosphate buffer containing 35% dipropylene glycol; type: cell-based; settings: E. coli 10536; for SI (Synergy Index = Qa/QA + Qb/QB): for Qa and Qb, less than one = synergy; for MBC of the component acting alone (QA or QB; Qa with Qb = 0, or Qb with Qa = 0): complete kill in 15 seconds, phosphate buffer with 35% DPG
From the text: The concentrations and ratios may also vary under different test conditions or with different test methods.
One measure of synergy is the industrially accepted method described by Kull, F. C.; Eisman, P. C.; Sylwestrowicz, H. D. and Mayer, R. L., in Applied Microbiology 9:538-541 (1961), using the ratio determined by the formula: Qa/QA+Qb/QB=Synergy Index (“SI”) wherein: • QA=concentration of compound A (first component) in percent, acting alone, which produced an end point (MBC of Compound A). • Qa=concentration of compound A in percent, in the mixture, which produced an end point. • QB=concentration of compound B (second component) in percent, acting alone, which produced an end point (MBC of Compound B). • Qb=concentration of compound B in percent, in the mixture, which produced an end point.
When the sum Qa/QA and Qb/QB is greater than one, antagonism is indicated. […] The lower the SI, the greater is the synergy shown by that particular mixture. The minimum biocidal concentration (MBC) of a microbicide is the lowest concentration tested under a specific set of conditions that provides complete kill of the tested microorganisms.
Synergy tests were conducted using standard microliter plate assays with phosphate buffer containing 35% dipropylene glycol (DPG). In this method, a wide range of combinations of chemicals was tested by conducting high resolution MBC assays of Component (A) in the presence of various concentrations of Component (B). High resolution MBCs were determined by adding varying amounts of microbicide to one column of a microliter plate and doing subsequent […] dilutions using an automated liquid handling system to obtain a series of closely spaced endpoints. The MBC plate was inoculated one column at a time with the test microorganism. An aliquot of the inoculated well was transferred at 15 seconds to a plate containing a neutralising agent (D/E Neutralising Broth), mixed and held for 5 minutes before being transferred to a growth plate-containing trypticase soy broth (TSB). The TSB plate was incubated at 37° C. and read for the presence/absence of growth at 24 hours. The lowest level tested that provided complete kill (as evidenced by no growth in the microtitre plate) of the test organisms in 15 seconds is the minimum biocidal concentration (MBC).
The synergy of the combinations of the present invention was determined against a bacterium, Escherichia coli (E. coli—ATCC #10536), at a concentration of approximately 1×10^8 bacteria per mL. This microorganism is representative of natural contaminants in many consumer and industrial applications.

[2] = test system: Escherichia coli (E. coli - ATCC #10536); assay: Automated assessment of efficacy in model surfactant solution (2.85% sodium cocoyl glycinate + 1.85% sodium lauroamphoacetate, pH 10), 15 seconds exposure; type: cell-based; settings: for MBC: Escherichia coli, ATCC10536, 15 s; for MBC / MBC (% w/v): 2.85% sodium cocoyl glycinate + 1.85% sodium lauroamphoacetate solution at pH 10, E. coli, component alone; for No. of replicates showing growth (out of 4) / ΔOD 450 nm = OD450 (time = 16 hours) − OD450 (time zero), Mean / ΔOD 590 nm = OD590 (time = 16 hours) − OD590 (time zero), Mean: model surfactant solution, pH 10, 15 s exposure
Experimental: In these examples, the efficacy of combinations of actives were tested in a surfactant cleansing formulation comprising 2.85% sodium cocoyl glycinate and 1.85% sodium, lauroamphoacetate.
This corresponds to a 50% in use dilution with water of a neat formulation containing 5.7% cocoyl glycinate and 3.7% sodium lauroamphoacetate during hand washing.
Solutions were prepared such that the concentrations of the surfactant components and test actives were 1.1× the final desired concentration in order to allow for dilution with the bacterial inoculum in the test. The solutions were manually adjusted to pH 10.0 by dropwise addition of sodium hydroxide solution, as measured with a pH meter at ambient temperature.
The efficacy of the combinations of the present invention was determined against Escherichia coli (E. coli—ATCC #10536), at a concentration of approximately 1×10^8 bacteria per mL.
Tests were conducted using standard microliter plate assays using an automated liquid handling system. 270 μl of the surfactant test solution was pipetted into each well of the microtitre plate and 30 μl of the bacterial suspension was then added. After exactly 15 seconds of bacterial exposure, a 30 μl volume of bacterial cells was withdrawn and transferred to 270 μl of D/E quench solution. After 5 minutes in the D/E quench, the optical density (OD) was measured for each plate in turn at two specific wavelengths (450 nm and 590 nm). These provide a dual check of antimicrobial, activity, as the OD450 reading is specific for the yellow colour of D/E quench when bacterial growth is observed, whereas OD590 is specific for the initial purple colour of the D/E quench which is retained if no bacterial growth is observed. After the time zero OD measurements, plates were then incubated at 37° C. overnight (16 hours) before repeating the OD measurements, Delta OD values were calculated by subtracting […] the initial value at time zero. Bacterial growth is observed as an increase in OD450 and a decrease in ΔOD590. To identify antibacterially efficacious systems (those preventing appreciable bacterial growth after incubation), the following threshold changes in OD readings have been adopted: if (1). OD450 increases by less than 0.2 absorbance unit on incubation and (2). OD590 decreases by less than 0.35 unit on incubation. Conversely, where OD450 increases by more than 0.2 AU and OD590 decreases by more than 0.35 unit after incubation, corresponding to a colour shift from purple to yellow, the test system allows bacterial growth and is not deemed efficacious. Four replicate measurements in the same plate have been made for each test system. The number of replicate wells showing either bacterial growth or no growth is also readily assessed by eye by following the colour change.

S. aureus 6538 = assay: Antimicrobial efficacy of actives against S. aureus in water; type: cell-based, Staphylococcus aureus
[3] = single active alone at 0.2% w/v
[4] = single active alone at 0.1% w/v
[5] = single active alone at 0.5% w/v
[6] = single active alone at 0.175% w/v

Compound | SI (Synergy Index = Qa/QA + Qb/QB) [1] | No. of replicates showing growth (out of 4) [2, 3] | ΔOD 450 nm = OD450 (time = 16 hours) − OD450 (time zero), Mean [2, 3] | ΔOD 590 nm = OD590 (time = 16 hours) − OD590 (time zero), Mean [2, 3] | No. of replicates showing growth (out of 4) ([2]; single active alone at […] w/v) | ΔOD 450 nm = OD450 (time = 16 hours) − OD450 (time zero), Mean ([2]; single active alone at […] w/v) | ΔOD 590 nm = OD590 (time = 16 hours) − OD590 (time zero), Mean ([2]; single active alone at […] w/v) | further results
C=C(C)[C@@H]1CC[C@@H](C)C[C@H]1O [(1R,2S,5R)-5-methyl-2-(prop-1-en-2-yl)cyclohexanol] | 1.00 | – | – | – | – | – | – | –
Cc1ccc(C(C)C)c(O)c1O [3-isopropyl-6-methylbenzene-1,2-diol] | – | – | – | – | – | – | – | MBC [2]: > 2000 µg/mL
CC(C)(C)c1ccc(O)c(O)c1 [4-tert-butylbenzene-1,2-diol] | – | – | – | – | – | – | – | MBC [2]: > 2000 µg/mL
Oc1ccccc1C1CCCC1 [2-cyclopentylphenol] | 1.00 | – | – | – | – | – | – | –
C=C(C)C1CCC(C)C(O)C1 (centres unmarked) [2-methyl-5-(prop-1-en-2-yl)cyclohexanol] | 1.00 | 4 | −0.49 | 0.63 | 4 | −0.43 | 0.66 | –
Oc1ccccc1Cc1ccccc1 [2-hydroxydiphenylmethane] | 1.00 | 4 | −0.51 | 0.63 | 4 | −0.49 | 0.64 | MBC of the component acting alone (QA or QB; Qa with Qb = 0, or Qb with Qa = 0) [1]: 0.8 weight % and 0.6 weight % and 1.0 weight % and 0.5 weight %; MBC (% w/v) [2]: >0.2 % w/v; No. of replicates showing growth (out of 4) [2, 4]: 4; ΔOD 450 nm = OD450 (time = 16 hours) − OD450 (time zero), Mean [2, 4]: −0.51; ΔOD 590 nm = OD590 (time = 16 hours) − OD590 (time zero), Mean [2, 4]: 0.62
Oc1ccc(C2CCCC2)cc1 [4-cyclopentylphenol] | 1.00 | – | – | – | – | – | – | –
C=C(C)C1CCC(C)CC1O (centres unmarked) [Isopulegol, 5-methyl-2-(prop-1-en-2-yl)cyclohexanol] | – | – | – | – | 4 | – | 0.64 | ΔOD 450 nm = OD450 (time = 16 hours) − OD450 (time zero), Mean [2, 5]: −0.09
Oc1cccc2c1CCCC2 [5,6,7,8-tetrahydronaphthalen-1-ol] | – | – | – | – | – | – | – | MBC of the component acting alone (QA or QB; Qa with Qb = 0, or Qb with Qa = 0) [1]: 0.6 weight %
cyclopentyl phenol | – | – | – | – | – | – | – | Log Reduction (S. aureus 6538; 0.05% cyclopentyl phenol): 1.9
Oc1ccc(Cc2ccccc2)cc1 [4-hydroxydiphenylmethane] | 1.00 | 4 | −0.52 | 0.61 | 4 | −0.55 | 0.54 | MBC of the component acting alone (QA or QB; Qa with Qb = 0, or Qb with Qa = 0) [1]: 1.0 weight % and 0.6 weight %; MBC (% w/v) [2]: >0.2 % w/v; No. of replicates showing growth (out of 4) [2, 4]: 4; ΔOD 450 nm = OD450 (time = 16 hours) − OD450 (time zero), Mean [2, 4]: −0.58; ΔOD 590 nm = OD590 (time = 16 hours) − OD590 (time zero), Mean [2, 4]: 0.52
Cc1cc(O)c(C(C)C)cc1Cl [4-chloro-2-isopropyl-5-methylphenol, reference compound] | – | 4 | −0.51 | 0.60 | 4 | −0.49 | 0.59 | No. of replicates showing growth (out of 4) [2, 6]: 4; ΔOD 450 nm = OD450 (time = 16 hours) − OD450 (time zero), Mean [2, 6]: −0.49; ΔOD 590 nm = OD590 (time = 16 hours) − OD590 (time zero), Mean [2, 6]: 0.58
C=C(C)C1CC=C(C)C(O)C1 (centres unmarked) [2-methyl-5-(prop-1-en-2-yl)cyclohex-2-enol] | 1.0 | – | – | – | 4 | – | – | No. of replicates showing growth (out of 4) [2, 5]: 0; ΔOD 450 nm = OD450 (time = 16 hours) − OD450 (time zero), Mean [2, 5]: 0.23; ΔOD 590 nm = OD590 (time = 16 hours) − OD590 (time zero), Mean [2, 5]: 0.20; Log Reduction (S. aureus 6538; […] carveol): 0.08

— patent publication US9832995B2, “Microbial composition” (Rohm and Haas Company, priority 2011, dated 2017)
